Here are results for three molecules from patent publication US7927821B2, “Methods of screening for compounds which bind G protein-coupled receptors” (Takeda Pharmaceutical Company Limited, priority 2004, dated 2011).

In experiment [1] the target is TGR25 (Homo sapiens, UniProt Q86Y34). Briefly: SRE-luciferase reporter assay in HeLa cells transiently expressing TGR25. Format: cell-based. The settings on record: for luciferase activity in the TGR25-expressed cells (in words): 20 μM.
Experiment [2] has as its system HL-60. Briefly: Differentiation of HL-60 cell line into neutrophil-like cells (CD11b/Mac-1, flow cytometry). It is filed as cell-based, human. The settings on record: co-presence of 1.25% DMSO and AM251 (10 μM), 4 days. The text has this: Human leukocyte cell line (human acute promyelocytic leukemia cell-derived) HL-60 is known to differentiate into neutrophil-like cells by treatment with DMSO (dimethyl sulfoxide) (Blood, 70, 1233-1244 (1987)). Gene expression analysis based on EXAMPLE 3 confirmed the expression of the TGR25 in the cell line. Accordingly, the action of AM251 as an agonist of the TGR25 for differentiation of the cells was examined.
After HL-60 cells in the growth phase were suspended in 10% fetal calf serum-containing RPMI 1640 medium, the cells were plated on a 12-well tissue culture plate (Becton Dickinson Japan) in 5×10^4 cells/well. […] Degree of cell differentiation was analyzed using a fluorescence-labeled antibody (PE-anti-human CD11b/Mac-1, Becton Dickinson Japan) on a flow cytometry (BD FACSVantage™, Becton Dickinson Japan), in terms of the expression level of a differentiation marker or cell surface antigen CD11b/Mac-1 as an indicator.
For orientation: Flow cytometry measures light scatter and fluorescence of single cells or particles in a stream.

The test system of experiment [3] is pAKKO-111H-transfected cells (control). As to the kind of experiment: SRE-luciferase reporter assay in pAKKO-111H-transfected HeLa cells for control (no receptor). The conditions noted are these: 2 μM. On the technique in general: Reporter assays use an easily measured gene product as a stand-in for the process of interest.

TGR25, sequence (Q86Y34 21-549): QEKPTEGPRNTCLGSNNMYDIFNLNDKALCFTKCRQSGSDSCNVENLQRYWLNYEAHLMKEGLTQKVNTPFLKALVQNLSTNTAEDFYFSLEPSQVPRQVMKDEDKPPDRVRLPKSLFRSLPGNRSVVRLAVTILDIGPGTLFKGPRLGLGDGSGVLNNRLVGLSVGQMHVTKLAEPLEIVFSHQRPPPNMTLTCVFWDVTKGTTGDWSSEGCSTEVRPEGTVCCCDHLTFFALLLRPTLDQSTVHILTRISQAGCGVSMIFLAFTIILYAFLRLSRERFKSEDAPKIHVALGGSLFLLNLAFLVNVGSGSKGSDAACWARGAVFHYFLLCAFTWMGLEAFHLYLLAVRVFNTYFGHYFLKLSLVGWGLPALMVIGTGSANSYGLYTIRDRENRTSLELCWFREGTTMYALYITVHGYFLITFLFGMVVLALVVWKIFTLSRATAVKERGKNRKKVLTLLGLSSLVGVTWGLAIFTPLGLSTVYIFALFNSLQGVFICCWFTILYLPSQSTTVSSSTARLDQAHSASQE

In the case of `Cc1c(C(=O)NN2CCCCC2)nn(-c2ccc(Cl)cc2Cl)c1-c1ccc(I)cc1` [AM251, 1-(2,4-dichlorophenyl)-5-(4-iodophenyl)-4-methyl-N-piperidin-1-yl-1H-pyrazole-3-carboxamide], the “luciferase activity in the TGR25 expression cells (in words)” value in experiment [1] (2 μM) is given as “increased luciferase activity was detected”. Also, in experiment [1] (AM251 2 μM, 4 hours, HeLa cells, 0 μM gave 7527), the “Increased luciferase activity (cps) in the TGR25 expression cells by AM251: TGR25” value is reported as 17897 cps. Moreover, the “differentiation of HL-60 into neutrophil-like cells” value in experiment [2] is given as “acts promotively”. Further, the “expression level of CD11b/Mac-1 (differentiation marker)” value in experiment [2] (versus DMSO alone) is given as “further increased”. Further, the “luciferase activity in the pAKKO-111H-transfected cells for control (in words)” value in experiment [3] is on record as “any significant increase in the activity was not detected”.
Consider `Cc1c(C(=O)NN2CCOCC2)nn(-c2ccc(Cl)cc2Cl)c1-c1ccc(I)cc1` [AM281, 1-(2,4-dichlorophenyl)-5-(4-iodophenyl)-4-methyl-N-morpholin-4-yl-1H-pyrazole-3-carboxamide], for which the “luciferase activity in the TGR25-expressed cells (in words)” value in experiment [1] is “the luciferase activity increased”. Besides, in experiment [1] (AM281 20 μM, 4 hours, HeLa cells, 0 μM gave 6113), the “Increase of Luciferase Activity in TGR25-Expressed Cells by AM281 (cps): TGR25” value is reported as 9279 cps.
Consider `CCCCC(=O)NCCc1c(Cc2ccccc2)[nH]c2ccccc12` [DH97, N-[2-(2-benzyl-1H-indol-3-yl)ethyl]pentanamide], for which the “luciferase activity in the TGR25-expressed cells (in words)” value in experiment [1] is recorded as “the luciferase activity increased”. Also, the “Increase of Luciferase Activity in TGR25-Expressed Cells by DH97 (cps): TGR25” value in experiment [1] (DH97 20 μM, 4 hours, HeLa cells, 0 μM gave 2642) came out at 5674 cps.
